Consider five compounds from patent publication US20010018422A1, “Dolastatin 15 derivatives” (BASF Aktiengesellschaft, priority 1999, published 2001).

The test system of data set [1] is tumor cells such as the HT-29 colon carcinoma or LX-1 lung tumor. Description: Cytotoxicity, microculture tetrazolium assay (MTT). Format: cell-based. Conditions: 48 hours incubation, T/C of 50%, cell line not given. The protocol:
Cytotoxicity was measured using a standard methodology for adherent cell lines, such as the microculture tetrazolium assay (MTT). Details of this assay have been published (Alley, M. C. et al., Cancer Research 48: 589-601, 1988). Exponentially growing cultures of tumor cells such as the HT-29 colon carcinoma or LX-1 lung tumor were used to make microtiter plate cultures. Cells were seeded at 5000-20,000 cells per well in 96-well plates (in […] of media), and grown overnight at 37° C. Test compounds were added, in 10-fold dilutions varying from 10^−4 M to 10^−10 M. Cells were then incubated for 48 hours. To determine the number of viable cells in each well, the MTT dye was added ([…] of a 3 mg/mL solution of 3-(4,5-dimethylthiazol-2-yl)-2,5-diphenyltetrazolium bromide in saline). This mixture was incubated at 37° C. for 5 hours, and then […] of 25% SDS, pH 2, was added to each well. After an overnight incubation, the absorbance of each well at 550 nm was read using an ELISA reader. The values for the mean+/−SD of data from replicated wells were calculated, using the formula % T/C (% viable cells treated/control). The concentration of test compound which gives a T/C of 50% growth inhibition was designated as the IC50.

Data set [2] has as its system National Cancer Institute's P388 lymphocytic leukemia (PS system) cell line. Conditions: cited from earlier work.
For data set [3] the following is noted: synthetic Dolastatin 15; cited from earlier work.

pIC50: −log10 of the molar value.

In data set [1], “2-(Me2Val-Val-MeVal-Pro-NH)—C6H4—CO—CH3 [IV-1]” had a negative-log IC50 (pIC50) below 6.00. For `CC(C)C(NC(=O)[C@H](C(C)C)N(C)C)C(=O)N(C)[C@H](C(=O)N1CCC[C@H]1C(=O)NC1CCCC1C(=O)NCc1ccccc1)C(C)C` (stereo partly drawn) [VII-2, Me2-Val-Val-MeVal-Pro-[cis-2-aminocyclopentanecarboxylic acid]-NHBn], the pIC50 in data set [1] was below 6.00. As for Dolastatin 15, the “inhibition of growth of P388 cell line” value in data set [2] is given as “markedly inhibits the growth”. In addition, the “solubility in aqueous systems” value in data set [3] is reported as “poor solubility”. In data set [1], `CON(C)C(=O)c1ccccc1NC(=O)[C@@H]1CCCN1C(=O)[C@H](C(C)C)N(C)C(=O)C(NC(=O)[C@H](C(C)C)N(C)C)C(C)C` (stereo partly drawn) [Compound I-60, (2)-(Me2Val-Val-MeVal-Pro-NH)—C6H4—CON(CH3)(OCH3)] gave a pIC50 of 6.40. Same read-out and setting: the figure for `CNC(=O)c1cccc(C2CCCC2)c1NC(=O)[C@@H]1CCCN1C(=O)[C@H](C(C)C)N(C)C(=O)[C@@H](NC(=O)[C@H](C(C)C)N(C)C)C(C)C` [Compound I-7, 2-(Me2ValVal-MeVal-ProNH)-3-cyclopentanyl-C6H3C(O)NHCH3] is 6.40.
